{"source": "ChEMBL document CHEMBL1128913", "about": "“Synthesis and in vitro cytotoxicity of cryptophycins and related analogs” (Bioorg Med Chem Lett, 1996)", "format_in_all_cases": "functional, cell-based", "key": {"HT-29": {"test_system": "HT-29", "experiment": "Cytotoxic activity against HT-29 human colon adenocarcinoma cells"}, "DA-3 cell line": {"test_system": "DA-3 cell line", "experiment": "Cytotoxic activity against DA-3 mouse mammary adenocarcinoma cells"}, "B16-F10": {"test_system": "B16-F10", "experiment": "Cytotoxic activity against B16F10 mouse melanoma cells"}, "KB [1]": {"test_system": "KB", "experiment": "Cytotoxic activity against KB human nasopharyngeal carcinoma cells"}, "KB [2]": {"test_system": "KB", "experiment": "Cytotoxic activity against Human nasopharyngeal KB cell line"}, "KB [3]": {"test_system": "KB", "experiment": "Cytotoxic activity against KBV vinblastine resistant KB cells", "details": "Homo sapiens"}}, "note": "pIC50: −log10 of the molar value.", "data": [{"smiles": "COc1ccc(C[C@H]2NC(=O)/C=C/C[C@@H]([C@H](C)[C@H]3O[C@@H]3c3ccccc3)OC(=O)[C@H](CC(C)C)OC(=O)[C@H](C)CNC2=O)cc1Cl", "note": "[CRYPTOPHYCIN A]", "values": [{"measurement": "pIC50", "setting": "HT-29", "result": 11.70}, {"measurement": "pIC50", "setting": "DA-3 cell line", "result": 11.70}, {"measurement": "pIC50", "setting": "B16-F10", "result": 10.52}, {"measurement": "pIC50", "setting": "KB [1]", "result": 11.40}, {"measurement": "IC50", "setting": "KB [2]", "result": 0.005, "unit": "ng/mL"}, {"measurement": "pIC50", "setting": "KB [3]", "result": 10.46}]}]}
